{
  "source": "patent US10028938B2",
  "about": "“Antiviral agents and uses thereof” (Griffith University, priority 2014, dated 2018)",
  "key": {"[1]": {"biological_target": "T1, hPIV-3 HN (UniProt P08492)", "T1 sequence (P08492 1-572)": "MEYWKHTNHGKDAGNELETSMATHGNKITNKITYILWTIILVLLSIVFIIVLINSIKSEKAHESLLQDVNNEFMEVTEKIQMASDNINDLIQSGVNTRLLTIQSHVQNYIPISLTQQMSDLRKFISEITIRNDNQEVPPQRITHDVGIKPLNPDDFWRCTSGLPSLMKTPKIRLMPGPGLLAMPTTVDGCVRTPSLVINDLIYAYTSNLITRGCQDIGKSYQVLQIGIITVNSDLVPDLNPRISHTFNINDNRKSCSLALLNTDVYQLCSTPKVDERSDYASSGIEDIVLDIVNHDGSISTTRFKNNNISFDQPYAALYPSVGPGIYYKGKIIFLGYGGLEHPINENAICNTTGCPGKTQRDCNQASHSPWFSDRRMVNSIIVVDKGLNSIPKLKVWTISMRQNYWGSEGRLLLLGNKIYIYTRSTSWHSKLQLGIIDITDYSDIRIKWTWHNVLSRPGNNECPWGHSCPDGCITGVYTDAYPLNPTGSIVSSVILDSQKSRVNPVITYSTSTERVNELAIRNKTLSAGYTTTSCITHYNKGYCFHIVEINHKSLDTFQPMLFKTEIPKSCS", "format": "biochemical, hPIV-3 (strain C-243)", "set-up": "rows headed: NI Mean IC50; hPIV-3 HN; 3 independent experiments; Ki; Km value for MUN; other: whole hPIV-3 virus, [I]=0; fold improvement in NI assay; other: versus 6; hPIV-3 HN NI IC50; other: text; other: text, unit given as M"}, "[2]": {"biological_target": "T1, hPIV-3 HN", "format": "biochemical, hPIV-3 (strain C-243)", "set-up": "rows headed: HI Mean IC50; hPIV-3 HN; 3 independent experiments; fold improvement in HI assay; other: versus 6; hPIV-3 HN HI IC50; other: text; other: text, unit given as M"}, "[3]": {"system": "hPIV-3", "test": "Virus growth inhibition assay, titration of progeny virus (focus forming assay) in LLC-MK2 cells", "format": "cell-based, hPIV-3 (strain C-243)"}, "[4]": {"system": "hPIV-3", "test": "In situ ELISA virus growth inhibition", "format": "cell-based, hPIV-3 (strain C-243)"}, "[5]": {"biological_target": "T1, hPIV-3 HN", "format": "biochemical, hPIV-3 (strain C-243)", "set-up": "rows headed: NI Mean IC50; hPIV-3 HN; 3 independent experiments; Ki; Km value for MUN; other: whole hPIV-3 virus, [I]=0; fold improvement in NI assay; other: versus 6; hPIV-3 HN NI IC50; other: text; other: text, unit given as M", "remark": "listed apart in the source"}, "[6]": {"biological_target": "T1, hPIV-3 HN", "format": "biochemical, hPIV-3 (strain C-243)", "set-up": "rows headed: NI hPIV-3 IC50", "conditions": "read-out: NI hPIV-3 IC50"}, "[7]": {"system": "LLC-MK2 cells", "test": "MTT assay for compound cytotoxicity", "conditions": "48 h, 30 μM, highest concentration tested", "protocol": "Infection was performed in duplicate and continued for 1 h at 37° C. with gentle agitation every 15 min. Inocula were removed and replaced with 500 μL/well of each respective 2 μM compound dilution (in EMEMinf)."}},
  "note": "Where two headings read alike, the source gives them in different places.",
  "data": [
    {"smiles": "CC(=O)N[C@H]1[C@H]([C@H](O)[C@H](O)CO)O[C@@](Oc2ccc3c(C)cc(=O)oc3c2)(C(=O)O)C[C@@H]1O", "note": "[MUN, 2′-(4-methylumbelliferyl) […]-D-N-acetylneuraminide]", "values": [
      {"measurement": "Km", "setting": "[1]; read-out: Km value for MUN", "result": 5.1, "unit": "mM"}
    ]},
    {"smiles": "CC(C)C(=O)N[C@H]1[C@H]([C@H](O)[C@H](O)CO)OC(C(=O)O)=C[C@@H]1N=[N+]=[N-]", "note": "[Compound 6, BCX 2798, reference compound]", "values": [
      {"measurement": "IC50", "setting": "[2]; read-out: HI Mean IC50", "result": 16.1, "unit": "µM"},
      {"measurement": "IC50", "setting": "[2]; read-out: hPIV-3 HN HI IC50", "result": 16.1, "unit": "µM"},
      {"measurement": "Virus growth inhibition (reduction in virus titre)", "setting": "[3]; 2 μM inhibitor, 48 h, LLC-MK2 cells, low MOI", "result": 14, "unit": "%"},
      {"measurement": "IC50", "setting": "[4]; LLC-MK2, A549 and NHBE cells, read-out: Virus growth inhibition IC50, range over all three cell lines", "result": "54.6 to 131", "unit": "µM"},
      {"measurement": "IC50", "setting": "[4]; LLC-MK2 cells, read-out: Virus growth IC50 (in situ ELISA)", "result": "54.6 ± 3.8", "unit": "µM"},
      {"measurement": "IC50", "setting": "[4]; NHBE cells, read-out: Virus growth IC50 (in situ ELISA)", "result": "79.3 ± 1", "unit": "µM"},
      {"measurement": "IC50", "setting": "[4]; Table 4, A549 cells, hPIV-3, read-out: Cell-based ELISA IC50", "result": 130, "unit": "µM"},
      {"measurement": "IC50", "setting": "[5]; read-out: NI Mean IC50", "result": 21.5, "unit": "µM"},
      {"measurement": "IC50", "setting": "[5]; read-out: hPIV-3 HN NI IC50", "result": 21.5, "unit": "µM"},
      {"measurement": "Ki", "setting": "[1]", "result": 16, "unit": "µM"},
      {"measurement": "IC50", "setting": "[6]", "result": 18, "unit": "µM"}
    ]},
    {"smiles": "CC(C)C(=O)N[C@H]1[C@H]([C@H](O)[C@H](O)CO)OC(C(=O)[O-])=C[C@@H]1n1cc(-c2ccccc2)nn1.[Na+]", "note": "[Compound 10, Sodium 2,6-anhydro-3,4,5-trideoxy-5-isobutyramido-4-(4-phenyl-[1,2,3,]triazol-1-yl)-D-glycero-D-galacto-non-2-enonate]", "values": [
      {"measurement": "Cytotoxic effect (MTT)", "setting": "[7]", "result": "No cytotoxic effect"},
      {"measurement": "inhibition at 2 µM", "setting": "[3]; Human respirovirus 3, LLC-MK2, 48 h, read-out: Virus growth inhibition (reduction in virus titre)", "result": 94, "unit": "%"},
      {"measurement": "IC50", "setting": "[4]; Human respirovirus 3, A549, read-out: Virus growth IC50 (in situ ELISA)", "result": "10.3 ± 0.3", "unit": "µM"},
      {"measurement": "IC50", "setting": "[4]; Human respirovirus 3, LLC-MK2, read-out: Virus growth IC50 (in situ ELISA)", "result": "2.1 ± 0.6", "unit": "µM"},
      {"measurement": "IC50", "setting": "[4]; Human respirovirus 3, NHBE, read-out: Virus growth IC50 (in situ ELISA)", "result": "13.9 ± 0.7", "unit": "µM"},
      {"measurement": "IC50", "setting": "[4]; Human respirovirus 3, read-out: Virus growth inhibition IC50, range over all three cell lines", "result": "2.1 to 13.9", "unit": "µM"},
      {"measurement": "times more potent than 6, cell-based assay", "setting": "[4]; LLC-MK2 cells, versus 6", "result": "~26", "unit": "times"}
    ]}
  ]
}
